{
  "source": "patent US20040235855A1",
  "about": "“Phospholipase C inhibitors for use in treating inflammatory disorders” (priority 2003, published 2004)",
  "key": {"PMA-induced ear edema [1]": {"test_system": "PMA-induced ear edema", "test": "Chronic PMA-induced ear edema mouse model", "assay_type": "in vivo", "details": "0.5 mg dose applied topically", "excerpt": "The chronic PMA-induced ear edema mouse model was used to test Compound 38 (as described in Stanley P L, Steiner S, Havens M and Tramposch K M, Mouse Skin Inflammation Induced by Multiple Topical Applications of 12-O-Tetradecanoylphorbol-13-acetate, Skin Pharmacol., 1991, 4: 262-271)."}, "[2]": {"test_system": "adjuvant-induced arthritis", "test": "Adjuvant-induced arthritis rat model", "assay_type": "in vivo", "details": "administered i.p.", "excerpt": "The adjuvant-induced arthritis rat model was used to test Compound 38 (as described in Anderson G D, Hauser S D, McGarity K L, Bremer M E, Isakson P C and Gregory S A, Selective Inhibition of Cyclooxygenase (Cox)-2 Reverses Inflammation and Expression of Cox-2 and Interleukein 6 in Rat Adjuvant Arthritis, J. Clin. Invest., 1996, 97:2672-2679)."}, "[3]": {"test_system": "zymosan-induced peritonitis", "test": "Zymosan-induced peritonitis mouse model", "assay_type": "in vivo", "details": "30 mpk dose administered i.p.", "excerpt": "The zymosan-induced peritonitis model was used to test Compound 38 (as described in Rao T S, Currie J L, Shaffer A F and Isakson P C, In vivo Characterization of Zymosan-Induced Mouse Peritoneal Inflammation, J. Pharm. Exptl. Ther., 1994, 269: 917-925)."}, "human PLC-β2": {"molecular_target": "T1, human PLC-β2 (Homo sapiens, UniProt Q00722)", "T1 construct": "made in house; host or cells: Sf9 cells (Spodoptera frugiperda), recombinant baculovirus", "T1 sequence (Q00722 whole entry)": "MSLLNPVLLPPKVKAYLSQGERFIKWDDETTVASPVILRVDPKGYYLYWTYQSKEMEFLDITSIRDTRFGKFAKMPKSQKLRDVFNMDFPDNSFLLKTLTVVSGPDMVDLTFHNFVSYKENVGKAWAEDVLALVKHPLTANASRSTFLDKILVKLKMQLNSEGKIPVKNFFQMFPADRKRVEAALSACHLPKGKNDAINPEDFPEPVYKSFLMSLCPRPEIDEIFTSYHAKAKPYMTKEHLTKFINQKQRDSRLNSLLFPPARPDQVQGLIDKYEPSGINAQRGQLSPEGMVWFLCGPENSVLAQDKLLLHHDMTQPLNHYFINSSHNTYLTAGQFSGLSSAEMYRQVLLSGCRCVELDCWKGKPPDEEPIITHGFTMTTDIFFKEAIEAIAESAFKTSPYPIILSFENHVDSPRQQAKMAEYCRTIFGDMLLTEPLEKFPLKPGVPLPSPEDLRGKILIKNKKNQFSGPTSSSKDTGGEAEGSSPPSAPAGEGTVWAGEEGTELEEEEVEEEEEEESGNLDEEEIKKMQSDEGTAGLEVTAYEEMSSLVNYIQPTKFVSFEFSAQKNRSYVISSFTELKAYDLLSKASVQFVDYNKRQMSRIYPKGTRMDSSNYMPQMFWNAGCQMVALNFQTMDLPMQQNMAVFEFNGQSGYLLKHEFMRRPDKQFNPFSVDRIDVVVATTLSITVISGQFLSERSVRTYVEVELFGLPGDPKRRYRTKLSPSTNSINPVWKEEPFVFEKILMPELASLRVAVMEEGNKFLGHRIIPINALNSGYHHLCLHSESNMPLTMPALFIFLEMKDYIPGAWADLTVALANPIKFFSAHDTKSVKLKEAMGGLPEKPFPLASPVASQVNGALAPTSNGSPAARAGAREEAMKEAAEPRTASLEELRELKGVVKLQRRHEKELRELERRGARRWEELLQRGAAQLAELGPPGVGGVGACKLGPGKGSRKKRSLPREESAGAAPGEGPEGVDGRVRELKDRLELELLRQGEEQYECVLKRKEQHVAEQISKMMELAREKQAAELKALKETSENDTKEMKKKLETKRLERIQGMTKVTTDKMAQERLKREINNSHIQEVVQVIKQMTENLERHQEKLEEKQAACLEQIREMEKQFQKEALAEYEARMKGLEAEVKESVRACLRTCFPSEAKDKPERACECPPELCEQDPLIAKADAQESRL", "test": "PLC assay using FlashPlates (96-well, immobilized [3H]PIP2 substrate)", "assay_type": "biochemical", "details": "purified recombinant human PLC-β2 or cytosolic human PLC-β2; hydrolysis of [3H]PIP2", "outline": "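Purified recombinant human PLC-β2 (Sf9 baculovirus) or cytosolic PLC-β2 from HL-60 cells hydrolysed [3H]PIP2 immobilised on phospholipid FlashPlates. Reactions ran in 50 mM Tris/HCl pH 7.2 with EDTA, KCl, LiCl, 0.04% DOC and 2 mM CaCl2. Activity was read as loss of bound radioactivity by scintillation counting.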"}, "PMA-induced ear edema [4]": {"test_system": "PMA-induced ear edema", "test": "Acute PMA-induced ear edema mouse model", "assay_type": "in vivo", "excerpt": "The acute PMA-induced ear edema mouse model was used to test compounds of the present […] (as described in Carlson R P, O'Neill-Davis L, Chang J. and Lewis A J, Modulation of Mouse Ear Edema by Cyclooxygenase and Lipoxygenase Inhibitors and Other Pharmacologic Agents, Agents and Actions, 1985, 17:197-204)."}, "[5]": {"test_system": "carageenan-induced paw edema", "test": "Carageenan-induced paw edema rat model", "assay_type": "in vivo", "excerpt": "The carageenan-induced paw edema rat model was used to test Compound 38 (as described in Vinegar R, Truax J F, Selph J L, Johnston P R, Venable A L and McKenzie K K, Pathway to Carrageenan-Induced Inflammation in the Hind Limb of the Rat, Fed. Proc., 1987, 46:118-126)."}},
  "data": [
    {"smiles": "O=C(Nc1cc(C(=O)N2CCNCC2)ccc1N1CCN(C(c2ccccc2)c2ccccc2)CC1)NC1CCCCC1", "note": "[Cpd 38, N-cyclohexyl-N′-[2-[4-(diphenylmethyl)-1-piperazinyl]-5-(1-piperazinylcarbonyl)phenyl]-urea]", "values": [
      {"measurement": "inhibition", "setting": "PMA-induced ear edema [1]", "value": 53, "unit": "%"},
      {"measurement": "inhibition in paws", "setting": "[2]", "value": "significant inhibition in both paws"},
      {"measurement": "inhibition", "setting": "[3]", "value": "about 45%"},
      {"measurement": "IC50", "setting": "human PLC-β2", "value": 2200, "unit": "nM"},
      {"measurement": "% Inhibition", "setting": "PMA-induced ear edema [4]; 5 mpk i.v.", "value": 47, "unit": "%"},
      {"measurement": "% Inhibition", "setting": "PMA-induced ear edema [4]; 30 mpk i.p.", "value": 84, "unit": "%"},
      {"measurement": "% Inhibition", "setting": "PMA-induced ear edema [4]; 30 mpk p.o.", "value": 0, "unit": "%"},
      {"measurement": "inhibition", "setting": "[5]; 30 mpk dose administered i.p.", "value": 80, "unit": "%"},
      {"measurement": "inhibition", "setting": "[5]; 30 mpk dose administered s.c.", "value": 60, "unit": "%"}
    ]}
  ]
}
